Experimental data reported in patent US20230340012A1, “NATURAL AND SYNTHETIC COMPOUNDS FOR TREATING CANCER AND OTHER DISEASES” (PACIFIC ARROW LIMITED, priority 2009, published 2023).

Test system: cancer cells
Assay: MTT cytotoxic assay of esterification products (Cytotoxicity activity)
Type: cell-based, human
Conditions: MTT cytotoxic assay, isolated esterification products of E4A
Description: The peaks, fractions and compounds are selected according to the activities of times studies and the changes of peaks. Selecting the HPLC fractions for isolation is according to the cytotoxic activity of the reaction product obtained at a specific time. The compounds having strong to weak activities are selected and isolated. Selecting the HPLC fractions for isolation may be according to the cytotoxic activity of times studies and the change of peaks. The anti-cancer activities are the MTT studies of bone (U2OS), lung (H460), bladder (HTB-9), ovary (ES2), colon (HCT116), pancreas (Capan), ovary(OVCAR3), prostate (DU145), skin (SK-Mel-5), mouth (KB), kidney (A498), breast (MCF-7), liver (HepG2), brain (T98G), leukemia (K562), cervix (HeLa).
Esterification of compound (A), (B), (C), (D1), (D2), (E), (F), (G), (H1), (H2), E4A, E4A2Y, (P1), P(2), terpene, isoprene, triterpenes, hydroxylated triterpenes, with acyl halide, wherein the halide comprise chloride, bromide, fluoride and iodide, wherein the acyl halide comprise acyl chloride, wherein acyl chloride comprise tigloyl chloride, angeloyl chloride, acetyl chloride, crotonoyl chloride, 3,3-Dimethylacryloyl chloride, senecioyl chloride, cinnamoyl chloride, pentenoyl chloride, hexanoyl chloride, benzoyl chloride, ethylbutyryl chloride, propionyl chloride, 2-propenoyl chloride, isobutyryl chloride, butyryl chloride, (2E)-2-pentenoyl chloride, 4-Pentenoyl chloride, 5-hexenoyl chloride, heptanoyl chloride, octanoyl chloride, nonanoyl chloride, decanoyl chloride, Lauroyl chloride, myristoyl chloride, oleoyl chloride. The compounds vary in composition when the time or temperature of the reaction is changed. The peaks, fractions and compounds are selected according to the activities of times studies and the changes of peaks. The compounds having strong to weak activities are selected and isolated. The anti-cancer activities (Cytotoxic Assay) are the MTT studies of bone (U2OS), lung (H460), bladder(HTB-9), ovary (ES2), colon (HCT116), pancreas (Capan), ovary(OVCAR3), prostate (DU145), skin (SK-Mel-5), mouth (KB), kidney (A498), breast (MCF-7), liver (HepG2), brain (T98G), leukemia (K562), cervix (HeLa). The active esterification products are purified with HPLC. The reaction product of mixtures and individual compounds are tested with MTT Cytotoxic Assay. Details of method are in Experiment 3 of the present application. A second esterification of compound can be selected from the above experiment results to produce new active compounds. A partial esterification compound is selected from the above experiments to perform a second or repeated with a third esterification with different acyl chloride in order to produce new active compounds with the experiments in the present application.
Method: 40 mg of triterpene core (fraction IV) was dissolved in 1 ml pyridine in a 50 ml tube. Reaction is started by adding 0.2 ml of acyl chloride (Tigloyl chloride, angeloyl chloride, Acetyl chloride, Crotonoyl chloride, 3,3-Dimethylacryloyl chloride(senecioyl chloride), Cinnamoyl chloride, Pentenoyl chloride, Hexanoyl chloride, benzoyl chloride or Ethylbutyryl chloride). The mixture is stirred for 5 sec, 1 min, 2 min, 5 min, 10 min, 30 min, 1 hr, 2 hr, 18 hr, 2 days or 3 days at 0° C., 25° C. or 75° C. temperature. At the end of reaction, 5 ml of 2N HCl or 1 M NaHCO3 is added to the reaction mixture. The solution is then extracted 3 times with 10 ml of ethyl acetate which is then evaporated under vacuum and at 45C and lyophilization. The reaction product is dissolved in 80% acetonitrile - 0.005% Trifluoroacetic acid or DMSO; and was separated with HPLC. Selecting the HPLC fractions for isolation is according to the cytotoxic activity of the reaction product obtained at a specific reaction time. The active esterification products are purified with HPLC. The reaction product of mixtures and individual compounds are tested with MTT cytotoxic assay. Structures are determined with NMR. […]

| SMILES | Cytotoxicity activity |
| --- | --- |
| CC(C)=CC(=O)OCC1(C)C(O)CCC2(C)C1CCC1(C)C2CC=C2C3CC(C)(C)C(O)C(OC(=O)C=C(C)C)C3(COC(=O)C=C(C)C)C(O)CC21C (stereo not drawn) [Compound B5] | moderate |
| CC(C)=CC(=O)OCC1(C)C(OC(=O)C=C(C)C)CCC2(C)C1CCC1(C)C2CC=C2C3CC(C)(C)C(O)C(O)C3(COC(=O)C=C(C)C)C(O)CC21C (stereo not drawn) [Compound B6] | moderate |
| CC(C)=CC(=O)OCC1(C)C(O)CCC2(C)C1CCC1(C)C2CC=C2C3CC(C)(C)C(O)C(O)C3(COC(=O)C=C(C)C)C(OC(=O)C=C(C)C)CC21C (stereo not drawn) [Compound B7] | moderate |
| CC(C)=CC(=O)OCC1(C)C(O)CCC2(C)C1CCC1(C)C2CC=C2C3CC(C)(C)C(OC(=O)C=C(C)C)C(OC(=O)C=C(C)C)C3(COC(=O)C=C(C)C)C(O)CC21C (stereo not drawn) [Compound B8] | weak |
| CC(C)=CC(=O)OCC1(C)C(OC(=O)C=C(C)C)CCC2(C)C1CCC1(C)C2CC=C2C3CC(C)(C)C(O)C(OC(=O)C=C(C)C)C3(COC(=O)C=C(C)C)C(O)CC21C (stereo not drawn) [Compound B9] | weak |
| CC(C)=CC(=O)OCC1(C)C(OC(=O)C=C(C)C)CCC2(C)C1CCC1(C)C2CC=C2C3CC(C)(C)C(O)C(O)C3(COC(=O)C=C(C)C)C(OC(=O)C=C(C)C)CC21C (stereo not drawn) [Compound B10] | weak |
| CC(C)=CC(=O)OCC1(C)C(OC(=O)C=C(C)C)CCC2(C)C1CCC1(C)C2CC=C2C3CC(C)(C)C(OC(=O)C=C(C)C)C(O)C3(COC(=O)C=C(C)C)C(O)CC21C (stereo not drawn) [Compound B11] | weak |
| CC(C)=CC(=O)OCC1(C)C(O)CCC2(C)C1CCC1(C)C2CC=C2C3CC(C)(C)C(O)C(OC(=O)C=C(C)C)C3(COC(=O)C=C(C)C)C(OC(=O)C=C(C)C)CC21C (stereo not drawn) [Compound B12] | weak |
| CC(C)=CC(=O)OCC1(C)C(O)CCC2(C)C1CCC1(C)C2CC=C2C3CC(C)(C)C(OC(=O)C=C(C)C)C(O)C3(COC(=O)C=C(C)C)C(OC(=O)C=C(C)C)CC21C (stereo not drawn) [Compound B13] | weak |
| CC(C)=CC(=O)OCC1(C)C(OC(=O)C=C(C)C)CCC2(C)C1CCC1(C)C2CC=C2C3CC(C)(C)C(O)C(OC(=O)C=C(C)C)C3(COC(=O)C=C(C)C)C(O)CC21C (stereo not drawn) [Compound B14] | weak |
| CC(C)=CC(=O)OCC1(C)C(OC(=O)C=C(C)C)CCC2(C)C1CCC1(C)C2CC=C2C3CC(C)(C)C(OC(=O)C=C(C)C)C(OC(=O)C=C(C)C)C3(COC(=O)C=C(C)C)C(O)CC21C (stereo not drawn) [Compound B15] | weak |
| CC(C)=CC(=O)OCC1(C)C(O)CCC2(C)C1CCC1(C)C2CC=C2C3CC(C)(C)C(OC(=O)C=C(C)C)C(OC(=O)C=C(C)C)C3(COC(=O)C=C(C)C)C(OC(=O)C=C(C)C)CC21C (stereo not drawn) [Compound B16] | weak |
| CC(C)=CC(=O)OCC1(C)C(OC(=O)C=C(C)C)CCC2(C)C1CCC1(C)C2CC=C2C3CC(C)(C)C(OC(=O)C=C(C)C)C(O)C3(COC(=O)C=C(C)C)C(OC(=O)C=C(C)C)CC21C (stereo not drawn) [Compound B17] | weak |
| CC(C)=CC(=O)OCC1(C)C(OC(=O)C=C(C)C)CCC2(C)C1CCC1(C)C2CC=C2C3CC(C)(C)C(O)C(OC(=O)C=C(C)C)C3(COC(=O)C=C(C)C)C(OC(=O)C=C(C)C)CC21C (stereo not drawn) [Compound B18] | weak |
| CC(C)=CC(=O)OCC1(C)C(OC(=O)C=C(C)C)CCC2(C)C1CCC1(C)C2CC=C2C3CC(C)(C)C(OC(=O)C=C(C)C)C(OC(=O)C=C(C)C)C3(COC(=O)C=C(C)C)C(OC(=O)C=C(C)C)CC21C (stereo not drawn) [Compound B19] | none |
| CC(C)=CC(=O)OCC12C(O)CC3(C)C(=CCC4C5(C)CCC(O)C(C)(CO)C5CCC43C)C1CC(C)(C)C(OC(=O)C=C(C)C)C2OC(=O)C=C(C)C (stereo not drawn) [Compound B20] | moderate |
| CC(C)=CC(=O)OCC1(C)C(O)CCC2(C)C1CCC1(C)C2CC=C2C3CC(C)(C)C(OC(=O)C=C(C)C)C(OC(=O)C=C(C)C)C3(CO)C(O)CC21C (stereo not drawn) [Compound B21] | moderate |
| CC(C)=CC(=O)OC1C(OC(=O)C=C(C)C)C2(CO)C(OC(=O)C=C(C)C)CC3(C)C(=CCC4C5(C)CCC(O)C(C)(CO)C5CCC43C)C2CC1(C)C (stereo not drawn) [Compound B22] | moderate |

| SMILES | Cytotoxicity activity |
| --- | --- |
| CC(C)=CC(=O)OC1C(OC(=O)C=C(C)C)C2(CO)C(O)CC3(C)C(=CCC4C5(C)CCC(OC(=O)C=C(C)C)C(C)(CO)C5CCC43C)C2CC1(C)C (stereo not drawn) [Compound B23] | moderate |
| CC(C)=CC(=O)OC1C(OC(=O)C=C(C)C)C2(CO)C(O)CC3(C)C(=CCC4C5(C)CCC(O)C(C)(CO)C5CCC43C)C2CC1(C)C (stereo not drawn) [Compound B24] | moderate |
| CC(C)=CC(=O)OCC12C(O)CC3(C)C(=CCC4C5(C)CCC(O)C(C)(CO)C5CCC43C)C1CC(C)(C)C(OC(=O)C=C(C)C)C2O (stereo not drawn) [Compound B25] | moderate |
| CC(C)=CC(=O)OCC12C(O)CC3(C)C(=CCC4C5(C)CCC(O)C(C)(CO)C5CCC43C)C1CC(C)(C)C(O)C2OC(=O)C=C(C)C (stereo not drawn) [Compound B26] | moderate |
| CC(C)=CC(=O)OCC12C(O)CC3(C)C(=CCC4C5(C)CCC(OC(=O)C=C(C)C)C(C)(CO)C5CCC43C)C1CC(C)(C)C(O)C2O (stereo not drawn) [Compound B27] | moderate |
| CC(C)=CC(=O)OCC12C(OC(=O)C=C(C)C)CC3(C)C(=CCC4C5(C)CCC(O)C(C)(CO)C5CCC43C)C1CC(C)(C)C(O)C2O (stereo not drawn) [Compound B28] | moderate |
| CC(C)=CC(=O)OCC1(C)C(O)CCC2(C)C1CCC1(C)C2CC=C2C3CC(C)(C)C(OC(=O)C=C(C)C)C(O)C3(CO)C(O)CC21C (stereo not drawn) [Compound B29] | moderate |
| CC(C)=CC(=O)OCC1(C)C(O)CCC2(C)C1CCC1(C)C2CC=C2C3CC(C)(C)C(O)C(OC(=O)C=C(C)C)C3(CO)C(O)CC21C (stereo not drawn) [Compound B30] | moderate |
| CC(C)=CC(=O)OCC1(C)C(OC(=O)C=C(C)C)CCC2(C)C1CCC1(C)C2CC=C2C3CC(C)(C)C(O)C(O)C3(CO)C(O)CC21C (stereo not drawn) [Compound B31] | moderate |
| CC(C)=CC(=O)OCC1(C)C(O)CCC2(C)C1CCC1(C)C2CC=C2C3CC(C)(C)C(O)C(O)C3(CO)C(OC(=O)C=C(C)C)CC21C (stereo not drawn) [Compound B32] | moderate |
| C=CCCC(=O)OCC1(C)C(O)CCC2(C)C1CCC1(C)C2CC=C2C3CC(C)(C)C(O)C(O)C3(CO)C(O)CC21C (stereo not drawn) [Compound C1] | moderate |
| C=CCCC(=O)OCC12C(O)CC3(C)C(=CCC4C5(C)CCC(O)C(C)(CO)C5CCC43C)C1CC(C)(C)C(O)C2O (stereo not drawn) [Compound C2] | moderate |
| C=CCCC(=O)OCC1(C)C(O)CCC2(C)C1CCC1(C)C2CC=C2C3CC(C)(C)C(O)C(O)C3(COC(=O)CCC=C)C(O)CC21C (stereo not drawn) [Compound C3] | strong |
| C=CCCC(=O)OCC1(C)C(O)CCC2(C)C1CCC1(C)C2CC=C2C3CC(C)(C)C(OC(=O)CCC=C)C(O)C3(COC(=O)CCC=C)C(O)CC21C (stereo not drawn) [Compound C4] | moderate |
| C=CCCC(=O)OCC1(C)C(O)CCC2(C)C1CCC1(C)C2CC=C2C3CC(C)(C)C(O)C(OC(=O)CCC=C)C3(COC(=O)CCC=C)C(O)CC21C (stereo not drawn) [Compound C5] | moderate |
| C=CCCC(=O)OCC1(C)C(OC(=O)CCC=C)CCC2(C)C1CCC1(C)C2CC=C2C3CC(C)(C)C(O)C(O)C3(COC(=O)CCC=C)C(O)CC21C (stereo not drawn) [Compound C6] | moderate |
| C=CCCC(=O)OCC1(C)C(O)CCC2(C)C1CCC1(C)C2CC=C2C3CC(C)(C)C(O)C(O)C3(COC(=O)CCC=C)C(OC(=O)CCC=C)CC21C (stereo not drawn) [Compound C7] | moderate |
| C=CCCC(=O)OCC1(C)C(O)CCC2(C)C1CCC1(C)C2CC=C2C3CC(C)(C)C(OC(=O)CCC=C)C(OC(=O)CCC=C)C3(COC(=O)CCC=C)C(O)CC21C (stereo not drawn) [Compound C8] | weak |
